Measured values as given in article PMC2888720 (Journal of medicinal chemistry, 2009).

What was measured:
[1] = system: wild-type nontransfected HL-60 cells; experiment: Ca2+ mobilization in wild-type nontransfected HL-60 cells; details: control cells which do not express FPRs
human neutrophils [2] = experiment: Chemotaxis assay in human neutrophils; format: cell-based; details: Neutrophil, read-out: EC50 Chemotaxis
human neutrophils [3] = experiment: Ca2+ mobilization in human neutrophils; format: cell-based; details: Neutrophil, read-out: EC50 Ca2+ mobilization

| SMILES | Ca2+ flux response in wild-type (nontransfected, undifferentiated) HL-60 cells [1] | EC50 (human neutrophils [2]) | EC50 (human neutrophils [3]) |
| --- | --- | --- | --- |
| COc1cccc(Cc2cc(C)nn(CC(=O)Nc3ccc(Br)cc3)c2=O)c1 [14a, N-(4-Bromophenyl)-2-[5-(3-methoxybenzyl)-3-methyl-6-oxo-6H-pyridazin-1-yl]-acetamide] | no response was observed | – | – |
| COc1cccc(Cc2cc(C)nn(CC(=O)Nc3ccc4c(c3)OCO4)c2=O)c1 [14m, N-Benzo[1,3]dioxol-5-yl-2-[5-(3-methoxybenzyl)-3-methyl-6-oxo-6H-pyridazin-1-yl]-acetamide] | – | 1.2 ± 0.6 µM | – |
| COc1cccc(Cc2cc(C)nn(CC(=O)Nc3ccc([N+](=O)[O-])cc3)c2=O)c1 [14p, 2-[5-(3-Methoxybenzyl)-3-methyl-6-oxo-6H-pyridazin-1-yl]-N-(4-nitrophenyl)-acetamide] | – | 1.9 ± 0.6 µM | 21.7 ± 4.2 µM |
